Results: PubChem BioAssay (NCI)
Several values for one entry are separate records, joined by “and”; a condition that tells them apart may be missing. Identical values can stand only once.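 Briefly, cells in 96-well plates were exposed to five compound concentrations for 48 h, and endpoints were estimated by linear interpolation. The concentration for 50% growth inhibition is given as GI50. TGI: concentration producing complete growth inhibition.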

What was measured:
Test in all cases: inhibition of tumour cell growth, NCI panel, 48 h
NCI-H522 lung = system: NCI-H522 lung
K-562 leukemia = system: K-562 leukemia
SK-MEL-2 melanoma = system: SK-MEL-2 melanoma
HCC-2998 colon = system: HCC-2998 colon
HL-60(TB) leukemia = system: HL-60(TB) leukemia
SK-MEL-28 melanoma = system: SK-MEL-28 melanoma
OVCAR-5 ovarian = system: OVCAR-5 ovarian
UO-31 renal = system: UO-31 renal
RXF 393 renal = system: RXF 393 renal
MCF7 breast = system: MCF7 breast

SMILES	TGI (NCI-H522 lung) [µM]	TGI (K-562 leukemia) [µM]	TGI (SK-MEL-2 melanoma) [µM]	TGI (HCC-2998 colon) [µM]	TGI (HL-60(TB) leukemia) [µM]	TGI (SK-MEL-28 melanoma) [µM]	TGI (OVCAR-5 ovarian) [µM]	TGI (UO-31 renal) [µM]	GI50 (NCI-H522 lung) [µM]	GI50 (K-562 leukemia) [µM]	GI50 (SK-MEL-2 melanoma) [µM]	GI50 (HCC-2998 colon)	GI50 (HL-60(TB) leukemia) [µM]	GI50 (SK-MEL-28 melanoma) [µM]	GI50 (OVCAR-5 ovarian) [µM]	GI50 (UO-31 renal) [µM]	GI50 (RXF 393 renal) [µM]	TGI (RXF 393 renal) [µM]	GI50 (MCF7 breast) [µM]	TGI (MCF7 breast) [µM]
COc1ccc(OC(C(=O)O)c2ccccc2)c2c1CCCC2=O (stereo not drawn)	> 100	> 100	> 100	> 100	> 100	> 100	> 100	> 100	–	–	–	–	–	–	–	–	–	–	–	–
O=C(/C(=C/c1ccc([N+](=O)[O-])cc1)SCc1ccc(F)cc1)c1ccc(Cl)cc1	4.44	> 100	36.4	19	40.4	45.8	38.9	17.8	1.88	3.05	13.8	5.11 µM	4.33	16.4	12.7	3.6	15.5	36.6	–	–
O=C1c2ccccc2C(=O)N1C/C=C/CO	> 100	> 100	> 100	> 100	> 100	> 100	–	> 100	–	–	–	–	–	–	–	–	–	> 100	–	–
c1ccc2c(c1)[nH]c1c2nc2ncccn21	> 100	> 100	> 100	> 100	–	> 100	> 100	> 100	–	–	–	–	–	–	–	–	–	> 100	–	–
CC1=C[P+](Cc2ccccc2)(c2ccccc2)CC1 (stereo not drawn)	> 100	> 100	> 100	> 100	> 100	> 100	> 100	> 100	–	–	–	97.7 µM and > 100 µM and 39.3 µM	–	–	–	–	–	> 100	–	–
C[C@H](CCCNCCCNCCCN)[C@H]1CC[C@H]2[C@@H]3[C@H](OCCCN)C[C@H]4C[C@H](OCCCN)CC[C@]4(C)[C@H]3C[C@H](OCCCN)[C@]12C	58.6	3.6	> 100	5.02	–	4.13	> 100	> 58.2	11.1	0.458	47.5	0.653 µM	–	0.573	17.5	0.913	6.29	46.9	6.46	> 26.4
S=c1nc(Cl)cc2[nH]c(Cl)cn12	6.22	–	> 100	> 100	–	> 100	–	> 100	–	–	–	–	–	–	–	–	–	> 100	–	19.3
O=C1c2ccccc2-c2c1c1c(O)cccc1n2-c1ccccc1	> 100	> 100	> 100	> 100	–	> 100	> 100	> 100	> 100	> 100	> 100	> 100 µM	–	18.5	> 100	> 100	–	–	> 100	> 100
C=C1C(=O)O[C@@H]2C1C[C@@H](O)C(=C)CC/C=C(\C)CCC[C@H](C)[C@H]2OC(C)=O (stereo partly drawn)	12.7	7.76	31.1	29.2	–	23	22.4	18.4	3.55	2.8	12.9	15.4 µM	–	4.78	10.3	5.18	4.15	20.9	3.04	18.5
COc1ccc(-c2cc(-c3ccc(O)cc3)nc3n[nH]c(N)c23)cc1	33.6	> 100	35.1	–	–	> 100	48.2	28.2	14.5	35.3	16.4	–	–	33.6	15.1	10.4	29	92.5	16.7	56.8
CNC(=O)c1cccc2c(Nc3ccc(NS(C)(=O)=O)cc3OC)c3cccc(C)c3nc12	2.51	4.79	6.37	2.34	0.0552	10.9	3.54	2.89	–	–	–	–	–	–	–	–	–	3.52	–	–
C=C(C)[C@@H]1CC[C@]2(CO)CC[C@]3(C)[C@H](CC[C@@H]4[C@@]5(C)CCC(NCCc6ccc(O)cc6)C(C)(C)[C@@H]5CC[C@]43C)[C@@H]12 (stereo partly drawn)	3.33	1.66	3.19	2.23	3.67	3	2.96	2.69	1.72	0.31	1.68	0.97 µM	1.49	1.58	1.59	1.32	–	–	0.912	2.57
CCOc1ccccc1NC(=O)CCc1n[nH]c(=S)o1	> 100	> 100	> 100	–	> 100	> 100	–	> 100	–	–	–	–	–	–	–	–	–	–	–	–
O=S(O)CCCSSc1ccccc1	42.4	> 100	> 100	> 100	–	> 100	> 100	> 100	–	–	–	–	–	–	–	–	–	> 100	–	–
O=C(NC1C2CC3CC(C2)CC1C3)c1cc(/C=C/c2ccccc2)[nH]c(=S)n1 (stereo not drawn)	> 100	> 100	> 100	> 100	> 100	> 100	> 100	> 100	–	–	–	–	–	–	–	–	–	> 100	–	–
COc1ccc2nc3ccccc3c(NCCCN(C)CCCl)c2c1	1.15	2.59	1.81	1.69	–	2.01	3.4	2.67	–	–	–	–	–	–	–	–	–	1.45	–	1.46
O=C1OC(c2ccccc2)(c2cc(Br)c(O)c(Br)c2)c2ccccc21 (stereo not drawn)	–	> 100	–	37.8	67.8	49.2	> 100	42.3	–	32.5	–	19.9 µM	22.8	21.1	31.8	15.6	18.6	36.4	23.8	78.7
CCOC(=O)[C@@H](C)C[C@H](Cc1ccccc1)NC(=O)c1csc([C@@H](C[C@H](C(C)C)N(C)C(=O)[C@H](CC)NC(=O)[C@H]2CCCCN2C)OC(C)=O)n1	0.362	> 16.7	> 16.7	> 5.64	0.0114	–	> 16.7	> 16.7	< 0.00167	< 0.00167	< 0.00167	0.00267 µM	< 0.00167	–	0.0108	0.0128	–	–	< 0.00167	> 16.7
